The subject of one assay is Streptococcus pneumoniae. The assay is described as follows: Antibacterial activity against Streptococcus pneumoniae at 64 ug/ml after 20 hrs. It is filed as functional, organism-based.
In assay [1] the target is T1, 3-oxoacyl-[acyl-carrier-protein] synthase 2 (Staphylococcus aureus, UniProt Q5TKS0).
T1 sequence (Q5TKS0 whole entry): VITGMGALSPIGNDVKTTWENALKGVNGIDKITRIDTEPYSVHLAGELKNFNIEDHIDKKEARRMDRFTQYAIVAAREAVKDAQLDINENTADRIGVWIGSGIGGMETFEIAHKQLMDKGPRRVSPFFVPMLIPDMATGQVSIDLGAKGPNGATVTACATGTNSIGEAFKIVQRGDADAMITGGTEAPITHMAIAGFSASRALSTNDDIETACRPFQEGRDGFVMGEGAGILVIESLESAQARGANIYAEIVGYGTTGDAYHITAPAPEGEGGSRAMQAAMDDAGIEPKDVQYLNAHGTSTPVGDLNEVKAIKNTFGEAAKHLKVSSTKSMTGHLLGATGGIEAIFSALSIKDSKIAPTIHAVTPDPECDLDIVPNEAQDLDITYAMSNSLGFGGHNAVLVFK
In words: (§1) Inhibition of Staphylococcus aureus […] assessed as [2-14C]-malonyl CoA incorporation after 90 mins by cell free-based scintillation counting.

For assay [2], the system named is Staphylococcus aureus. The assay is described as follows: Antibacterial activity against Staphylococcus aureus at 64 ug/ml after 20 hrs. In kind it is functional, organism-based.
The subject of the next assay is Enterococcus faecalis. In words: Antibacterial activity against Enterococcus faecalis at 64 ug/ml after 20 hrs. In kind it is functional, organism-based.
A further assay deals with Enterococcus faecium. In words: Antibacterial activity against Enterococcus faecium at 64 ug/ml after 20 hrs. In kind it is functional, organism-based.
The subject of a further assay is Escherichia coli. The assay is described as follows: Antibacterial activity against Escherichia coli at 64 ug/ml after 20 hrs. It is filed as functional, organism-based.
For a further assay, the system named is Haemophilus influenzae. In words: Antibacterial activity against Haemophilus influenzae at 64 ug/ml after 20 hrs. It is filed as functional, organism-based.
Assay [3] concerns Staphylococcus aureus. In words: Antibacterial activity against Staphylococcus aureus RN450 expressing S1-1941 plasmid carrying antisense FabF2p RNA assessed as 5 mm differential zone clearance measured as minimum concentration after 18 hrs. It is filed as functional.
Assay [4] concerns the target T2, 3-oxoacyl-[acyl-carrier-protein] synthase 2 (Staphylococcus aureus) (UniProt Q5TKS0).
T2 sequence (whole entry): T1 sequence (Q5TKS0 whole entry)
Described as §1.

Calls of active or inactive are those of the source. No cut-off for these calls is given here.

Broadly, the IC50 is the concentration that gives 50% inhibition. `C[C@]12O[C@H]3CC1C[C@@]1(C=C(O)C(=O)[C@@](C)(CCC(=O)Nc4c(O)ccc(C(=O)O)c4O)C31)C2O` (stereo partly specified): the outcome with Streptococcus pneumoniae, in the assay with Staphylococcus aureus [2], with Enterococcus faecalis, in the assay on Enterococcus faecium, in the assay with Escherichia coli and with Haemophilus influenzae was inactive. Moreover, the half-maximal inhibitory concentration (IC50) in assay [1] was 33.8 µM. For the same molecule, in the assay with Staphylococcus aureus [3], the Activity is less than 20 µg/mL.
With `COC(=O)c1ccc(O)c(NC(=O)CC[C@]2(C)C(=O)C=CC34CC5CC(OC5(CO)C3)C42)c1O` (stereo partly specified) [PLATENSIMYCIN A4 METHYL ESTER], the result with Streptococcus pneumoniae, in the assay on Staphylococcus aureus [2], in the assay with Enterococcus faecalis, with Enterococcus faecium, in the assay on Escherichia coli and in the assay on Haemophilus influenzae was inactive. Further, the inhibition entry in assay [4] was “inactive”. The Activity in the assay with Staphylococcus aureus [3] was 100 µg/mL.
On to `COC(=O)c1ccc(O)c(NC(=O)CC[C@]2(C)C(=O)C=C[C@]34CC5C[C@H](O[C@]5(C)C3O)C42)c1O` (stereo partly specified), for which the result in the assay on Streptococcus pneumoniae, with Staphylococcus aureus [2], with Enterococcus faecalis, in the assay with Enterococcus faecium, with Escherichia coli and in the assay with Haemophilus influenzae was inactive. Also, the inhibition entry in assay [4] was “inactive”.
In the case of `C[C@@]12C[C@@]34C=CC(=O)[C@@](C)(CCC(=O)Nc5c(O)ccc6c(=O)[nH]c(=O)oc56)C3[C@H](CC1C4)O2` (stereo partly specified), the result in the assay on Streptococcus pneumoniae, in the assay with Staphylococcus aureus [2], in the assay with Enterococcus faecalis, in the assay with Enterococcus faecium, in the assay on Escherichia coli and with Haemophilus influenzae was inactive. The inhibition entry in [4] is “inactive”.
Consider `COC(=O)c1ccc(O)c(NC(=O)CC[C@]2(C)C(=O)C=CC34CC(CCC32)C(O)(CO)C4)c1O` (stereo partly specified), for which the outcome with Streptococcus pneumoniae, in the assay on Staphylococcus aureus [2], in the assay with Enterococcus faecalis, in the assay with Enterococcus faecium, in the assay on Escherichia coli and in the assay with Haemophilus influenzae was inactive. In addition, the inhibition entry in assay [4] was “inactive”.
With `CC(=O)NCC[C@H](NC(=O)CC[C@]1(C)C(=O)C=C[C@]23CC4C[C@H](O[C@]4(C)C2)C31)C(=O)O` (stereo partly specified), the outcome with Streptococcus pneumoniae, in the assay with Staphylococcus aureus [2], in the assay on Enterococcus faecalis, in the assay with Enterococcus faecium, with Escherichia coli and in the assay on Haemophilus influenzae was inactive. Further, the inhibition entry in assay [4] is “inactive”.
Consider `C[C@]12O[C@H]3CC1C[C@@]1(C=CC(=O)[C@@](C)(CCC(=O)O)C31)[C@H]2O` (stereo partly specified), for which the outcome in the assay with Streptococcus pneumoniae, with Staphylococcus aureus [2], with Enterococcus faecalis, in the assay with Enterococcus faecium, with Escherichia coli and in the assay with Haemophilus influenzae was inactive. In [4], the inhibition result was “inactive”.
In the case of `C[C@@]12CC34C=CC(=O)[C@@](C)(CCC(=O)Nc5c(O)ccc(C(=O)O)c5O)C3[C@H](CC1[C@H]4O)O2` (stereo partly specified), the result in the assay on Streptococcus pneumoniae, with Staphylococcus aureus [2], in the assay on Enterococcus faecalis, in the assay with Enterococcus faecium, with Escherichia coli and with Haemophilus influenzae was inactive. Also, the inhibition result in assay [4] was “inactive”.
For the molecule `C=C1CC23C=CC(=O)[C@@](C)(CCC(=O)OC)C2CC1[C@@H](O)C3` (stereo partly specified), the outcome in the assay on Streptococcus pneumoniae, in the assay on Staphylococcus aureus [2], in the assay with Enterococcus faecalis, with Enterococcus faecium, in the assay with Escherichia coli and with Haemophilus influenzae was inactive. The inhibition result in [4] was “inactive”.
Take `COC(=O)c1ccc(O)c(NC(=O)CC[C@]2(C)C(=O)C=CC34CC5(C)OC(C[C@]5(O)C3)C42)c1O` (stereo partly specified): the outcome in the assay with Streptococcus pneumoniae, in the assay on Staphylococcus aureus [2], in the assay with Enterococcus faecalis, in the assay on Enterococcus faecium, in the assay on Escherichia coli and in the assay on Haemophilus influenzae was inactive. Also, the inhibition result in [4] is “inactive”.
Turning to `COC(=O)c1ccc(O)c(NC(=O)CC[C@]2(C)C(=O)C=C[C@]34CC5C[C@H](O[C@]5(C)C3)C42)c1O` (stereo partly specified), the outcome in the assay on Streptococcus pneumoniae, in the assay with Staphylococcus aureus [2], with Enterococcus faecalis, in the assay on Enterococcus faecium, in the assay on Escherichia coli and in the assay on Haemophilus influenzae was inactive. Also, the inhibition entry in assay [4] is “inactive”.
Turning to `CC12CC34C=CC(=O)[C@@](C)(CCC(=O)Nc5c(O)ccc(C(=O)O)c5O)C3C(C[C@]1(O)C4)O2` (stereo partly specified), the result with Streptococcus pneumoniae, in the assay with Staphylococcus aureus [2], in the assay on Enterococcus faecalis, in the assay with Enterococcus faecium, in the assay on Escherichia coli and with Haemophilus influenzae was inactive. In assay [4], the inhibition result was “inactive”.
Take `C=C1C2CCC3(C=CC(=O)[C@@](C)(CCC(=O)Nc4c(O)ccc(C(=O)OC)c4O)C3C2)[C@H]1O` (stereo partly specified): the result in the assay with Streptococcus pneumoniae, in the assay on Staphylococcus aureus [2], in the assay on Enterococcus faecalis, in the assay with Enterococcus faecium, with Escherichia coli and in the assay on Haemophilus influenzae was inactive. In assay [4], the inhibition entry is “inactive”.
`C[C@@]1(O)CC23C=CC(=O)[C@@](C)(CCC(=O)Nc4c(O)ccc(C(=O)O)c4O)C2CC1CC3` (stereo partly specified): the result in the assay on Streptococcus pneumoniae, in the assay on Staphylococcus aureus [2], with Enterococcus faecalis, with Enterococcus faecium, in the assay with Escherichia coli and in the assay on Haemophilus influenzae was inactive. For the same molecule, the inhibition entry in assay [4] was “inactive”.
As for `COC(=O)c1ccc(O)c(NC(=O)CC[C@]2(C)C(=O)C[C@@H](O)[C@]34CC5C[C@H](O[C@]5(C)C3)C42)c1O` (stereo partly specified), the outcome in the assay on Streptococcus pneumoniae, in the assay on Staphylococcus aureus [2], in the assay with Enterococcus faecalis, in the assay with Enterococcus faecium, in the assay on Escherichia coli and in the assay on Haemophilus influenzae was inactive. In addition, the inhibition entry in [4] was “inactive”.
In the case of `COC(=O)CC[C@]1(C)C(=O)C=C[C@]23CC4C[C@H](O[C@]4(C)C2)C31` (stereo partly specified), the result in the assay with Streptococcus pneumoniae, in the assay on Staphylococcus aureus [2], in the assay on Enterococcus faecalis, in the assay with Enterococcus faecium, in the assay on Escherichia coli and in the assay with Haemophilus influenzae was inactive. Moreover, the inhibition result in assay [4] was “inactive”.
Take `COC(=O)CC[C@]1(C)C(=O)C=C[C@]23CC4C[C@H](O[C@]4(C)[C@@H]2O)C13` (stereo partly specified): the result with Streptococcus pneumoniae, in the assay with Staphylococcus aureus [2], in the assay with Enterococcus faecalis, in the assay with Enterococcus faecium, in the assay on Escherichia coli and in the assay on Haemophilus influenzae was inactive. Also, the inhibition result in assay [4] was “inactive”.
